From the NIST ThermoML archive (doi:10.1016/j.jct.2006.07.025)
Numbers after ± are expanded uncertainties.

Assay: xn = mol fraction of the nth substance listed
Details: for surface tension liquid-gas: Pendant drop shape; for mass density: 101 kPa, Liquid, Vibrating tube method

Cc1cc(C)cc(C)c1 [1,3,5-trimethylbenzene] + CCCOC(C)=O
surface tension liquid-gas (298.15 K, x2 = 0): 28.09 ± 0.31 mN/m
surface tension liquid-gas (298.15 K, x2 = 0.0996): 27.63 ± 0.31 mN/m
surface tension liquid-gas (298.15 K, x2 = 0.2006): 27.16 ± 0.3 mN/m
surface tension liquid-gas (298.15 K, x2 = 0.3006): 26.7 ± 0.3 mN/m
surface tension liquid-gas (298.15 K, x2 = 0.4003): 26.27 ± 0.29 mN/m
surface tension liquid-gas (298.15 K, x2 = 0.4985): 25.85 ± 0.29 mN/m
surface tension liquid-gas (298.15 K, x2 = 0.6001): 25.46 ± 0.28 mN/m
surface tension liquid-gas (298.15 K, x2 = 0.6987): 25.09 ± 0.28 mN/m
surface tension liquid-gas (298.15 K, x2 = 0.7983): 24.73 ± 0.28 mN/m
surface tension liquid-gas (298.15 K, x2 = 0.8995): 24.35 ± 0.27 mN/m
mass density (298.15 K, x2 = 0): 861.04 ± 0.18 kg/m3
mass density (298.15 K, x2 = 0.0498): 861.7 ± 0.17 kg/m3
mass density (298.15 K, x2 = 0.0996): 862.38 ± 0.17 kg/m3
mass density (298.15 K, x2 = 0.1504): 863.1 ± 0.17 kg/m3
mass density (298.15 K, x2 = 0.2006): 863.85 ± 0.17 kg/m3
mass density (298.15 K, x2 = 0.2502): 864.63 ± 0.17 kg/m3
mass density (298.15 K, x2 = 0.3006): 865.46 ± 0.17 kg/m3
mass density (298.15 K, x2 = 0.3499): 866.32 ± 0.16 kg/m3
mass density (298.15 K, x2 = 0.4003): 867.23 ± 0.16 kg/m3
mass density (298.15 K, x2 = 0.4498): 868.17 ± 0.16 kg/m3
mass density (298.15 K, x2 = 0.4985): 869.14 ± 0.16 kg/m3
mass density (298.15 K, x2 = 0.5526): 870.28 ± 0.16 kg/m3
mass density (298.15 K, x2 = 0.6001): 871.33 ± 0.16 kg/m3
mass density (298.15 K, x2 = 0.65): 872.49 ± 0.16 kg/m3
mass density (298.15 K, x2 = 0.6987): 873.7 ± 0.15 kg/m3
mass density (298.15 K, x2 = 0.7369): 874.66 ± 0.15 kg/m3
mass density (298.15 K, x2 = 0.7983): 876.31 ± 0.15 kg/m3
mass density (298.15 K, x2 = 0.8504): 877.83 ± 0.15 kg/m3
mass density (298.15 K, x2 = 0.8995): 879.31 ± 0.15 kg/m3
mass density (298.15 K, x2 = 0.9397): 880.63 ± 0.15 kg/m3
surface tension liquid-gas (303.15 K, x2 = 0): 27.67 ± 0.31 mN/m
surface tension liquid-gas (303.15 K, x2 = 0.1): 27.18 ± 0.3 mN/m
surface tension liquid-gas (303.15 K, x2 = 0.2012): 26.69 ± 0.3 mN/m
surface tension liquid-gas (303.15 K, x2 = 0.2995): 26.2 ± 0.29 mN/m
surface tension liquid-gas (303.15 K, x2 = 0.3998): 25.74 ± 0.29 mN/m
surface tension liquid-gas (303.15 K, x2 = 0.4996): 25.3 ± 0.28 mN/m
surface tension liquid-gas (303.15 K, x2 = 0.6004): 24.9 ± 0.28 mN/m
surface tension liquid-gas (303.15 K, x2 = 0.7007): 24.5 ± 0.28 mN/m
surface tension liquid-gas (303.15 K, x2 = 0.7987): 24.12 ± 0.27 mN/m
surface tension liquid-gas (303.15 K, x2 = 0.9009): 23.73 ± 0.27 mN/m
mass density (303.15 K, x2 = 0): 856.96 ± 0.18 kg/m3
mass density (303.15 K, x2 = 0.1): 857.96 ± 0.17 kg/m3
mass density (303.15 K, x2 = 0.2012): 859.34 ± 0.17 kg/m3
mass density (303.15 K, x2 = 0.2995): 860.81 ± 0.17 kg/m3
mass density (303.15 K, x2 = 0.3998): 862.5 ± 0.16 kg/m3
mass density (303.15 K, x2 = 0.4996): 864.32 ± 0.16 kg/m3
mass density (303.15 K, x2 = 0.6004): 866.41 ± 0.16 kg/m3
mass density (303.15 K, x2 = 0.7007): 868.63 ± 0.16 kg/m3
mass density (303.15 K, x2 = 0.7987): 871.2 ± 0.15 kg/m3
mass density (303.15 K, x2 = 0.9009): 874.11 ± 0.15 kg/m3
surface tension liquid-gas (308.15 K, x2 = 0): 27.24 ± 0.3 mN/m
surface tension liquid-gas (308.15 K, x2 = 0.0985): 26.73 ± 0.3 mN/m
surface tension liquid-gas (308.15 K, x2 = 0.1992): 26.2 ± 0.29 mN/m
surface tension liquid-gas (308.15 K, x2 = 0.3018): 25.69 ± 0.29 mN/m
surface tension liquid-gas (308.15 K, x2 = 0.3991): 25.21 ± 0.28 mN/m
surface tension liquid-gas (308.15 K, x2 = 0.5009): 24.75 ± 0.28 mN/m
surface tension liquid-gas (308.15 K, x2 = 0.6012): 24.33 ± 0.28 mN/m
surface tension liquid-gas (308.15 K, x2 = 0.6997): 23.91 ± 0.27 mN/m
surface tension liquid-gas (308.15 K, x2 = 0.7983): 23.52 ± 0.27 mN/m
surface tension liquid-gas (308.15 K, x2 = 0.8997): 23.11 ± 0.26 mN/m
mass density (308.15 K, x2 = 0): 852.84 ± 0.18 kg/m3
mass density (308.15 K, x2 = 0.0985): 853.66 ± 0.17 kg/m3
mass density (308.15 K, x2 = 0.1992): 854.81 ± 0.17 kg/m3
mass density (308.15 K, x2 = 0.3018): 856.13 ± 0.17 kg/m3
mass density (308.15 K, x2 = 0.3991): 857.53 ± 0.17 kg/m3
mass density (308.15 K, x2 = 0.5009): 859.15 ± 0.16 kg/m3
mass density (308.15 K, x2 = 0.6012): 861.08 ± 0.16 kg/m3
mass density (308.15 K, x2 = 0.6997): 863.19 ± 0.16 kg/m3
mass density (308.15 K, x2 = 0.7983): 865.52 ± 0.15 kg/m3
mass density (308.15 K, x2 = 0.8997): 868.19 ± 0.15 kg/m3
surface tension liquid-gas (313.15 K, x2 = 0): 26.82 ± 0.3 mN/m
surface tension liquid-gas (313.15 K, x2 = 0.1004): 26.28 ± 0.29 mN/m
surface tension liquid-gas (313.15 K, x2 = 0.1999): 25.73 ± 0.29 mN/m
surface tension liquid-gas (313.15 K, x2 = 0.3004): 25.19 ± 0.28 mN/m
surface tension liquid-gas (313.15 K, x2 = 0.3998): 24.69 ± 0.28 mN/m
surface tension liquid-gas (313.15 K, x2 = 0.5001): 24.21 ± 0.27 mN/m
surface tension liquid-gas (313.15 K, x2 = 0.6): 23.76 ± 0.27 mN/m
surface tension liquid-gas (313.15 K, x2 = 0.7005): 23.33 ± 0.27 mN/m
surface tension liquid-gas (313.15 K, x2 = 0.8003): 22.92 ± 0.26 mN/m
surface tension liquid-gas (313.15 K, x2 = 0.9003): 22.5 ± 0.26 mN/m
mass density (313.15 K, x2 = 0): 848.74 ± 0.18 kg/m3
mass density (313.15 K, x2 = 0.0503): 848.97 ± 0.18 kg/m3
mass density (313.15 K, x2 = 0.1004): 849.28 ± 0.17 kg/m3
mass density (313.15 K, x2 = 0.1501): 849.65 ± 0.17 kg/m3
mass density (313.15 K, x2 = 0.1999): 850.05 ± 0.17 kg/m3
mass density (313.15 K, x2 = 0.2499): 850.49 ± 0.17 kg/m3
mass density (313.15 K, x2 = 0.3004): 851.02 ± 0.17 kg/m3
mass density (313.15 K, x2 = 0.3502): 851.58 ± 0.17 kg/m3
mass density (313.15 K, x2 = 0.3998): 852.18 ± 0.17 kg/m3
mass density (313.15 K, x2 = 0.449): 852.83 ± 0.16 kg/m3
mass density (313.15 K, x2 = 0.5001): 853.57 ± 0.16 kg/m3
mass density (313.15 K, x2 = 0.5502): 854.4 ± 0.16 kg/m3
mass density (313.15 K, x2 = 0.6): 855.29 ± 0.16 kg/m3
mass density (313.15 K, x2 = 0.6503): 856.26 ± 0.16 kg/m3
mass density (313.15 K, x2 = 0.7005): 857.33 ± 0.16 kg/m3
mass density (313.15 K, x2 = 0.7499): 858.44 ± 0.16 kg/m3
mass density (313.15 K, x2 = 0.8003): 859.87 ± 0.16 kg/m3
mass density (313.15 K, x2 = 0.8499): 861.27 ± 0.15 kg/m3
mass density (313.15 K, x2 = 0.9003): 862.85 ± 0.15 kg/m3
mass density (313.15 K, x2 = 0.9504): 864.3 ± 0.15 kg/m3
